Laboratory results: patent US8633204B2 (Pfizer Inc., priority 2006, dated 2014)

molecular target: PI3-Kα (Mus musculus (Mouse), UniProt P42337); assay: PI3-Kα Biochemical Assay (fluorescence polarization kinase assay); conditions: not given
Experimental: Compounds of the present invention were evaluated for potency against PI3-Kα using an in vitro kinase assay. PI3-Kα activity is measured in vitro by determining the level of phosphorylation of the substrate PI(4,5)P2. The formation of product PI(3,4,5)P3 is monitored by binding to the Grip1 PH domain in a ligand displacement fluorescence polarization (FP) assay, in which the TAMRA-labeled PI(3,4,5)P3 complexed with Grip1 PH domain is displaced by PI(3,4,5)P3 formed in the PI3-Kα reaction resulting in a decrease in FP signal. Mouse PI3-Kα P110 and P85 subunits were co-expressed in insect cells and co-purified to homogeneity. PI(4,5)P2 were obtained from Cayman. TAMRA-labeled PI(3,4,5)P3 were from Echelon, Grip1 PH domain from Dundee and other reagents were from Sigma.
All assays were performed in a Corning solid black 96-well half area plate using LJL Analyst (Molecular Devices) at room temperature. The assay buffer contained 50 mM HEPES, pH 7.4, 150 mM NaCl, 5 mM DTT, and 0.05% CHAPS. Dry powder PI(4,5)P2 was dissolved in 50 mM TRIS, pH 8 to make 1 mM stock solution. The PI(4,5)P2 stock solution was then diluted in the assay buffer to 60 μM, and sonicated for 30 sec before use. To the assay plate, the following reagents were added in sequence: 10 μL of 60 μM PI(4,5)P2, 5 μL of 4 nM PI3-Kα, 2 μL of compound in 25% DMSO, 3 μL of mixture containing 200 μM ATP and 33 mM MgCl2. The final volume for the reaction was 20 μL. The reaction mixture was incubated at room temperature for 35 min. The reaction was then stopped by 20 μL of 20 mM EDTA. […] The FP signal was allowed to develop for 40 min before reading on a LJL analyst at excitation 535 nm and emission 580 nm.
The percentage of inhibition was calculated based on the following equation % inhibition=[1−(FPcompound−FPmax)/(FPmin−FPmax)]×100, where FPcompound is the FP reading at a given compound concentration, FPmin is the FP signal of the PI3-Kα reaction in the absence of a compound, and FPmax is the background FP signal in the absence of PI3-Kα and a compound. The IC50 was determined by fitting the FP signal vs. compound concentration to a sigmoidal dose response equation using GraphPad Prism curve fitting program.

Chain of PI3-Kα (P42337 whole entry, the tested form may be a part): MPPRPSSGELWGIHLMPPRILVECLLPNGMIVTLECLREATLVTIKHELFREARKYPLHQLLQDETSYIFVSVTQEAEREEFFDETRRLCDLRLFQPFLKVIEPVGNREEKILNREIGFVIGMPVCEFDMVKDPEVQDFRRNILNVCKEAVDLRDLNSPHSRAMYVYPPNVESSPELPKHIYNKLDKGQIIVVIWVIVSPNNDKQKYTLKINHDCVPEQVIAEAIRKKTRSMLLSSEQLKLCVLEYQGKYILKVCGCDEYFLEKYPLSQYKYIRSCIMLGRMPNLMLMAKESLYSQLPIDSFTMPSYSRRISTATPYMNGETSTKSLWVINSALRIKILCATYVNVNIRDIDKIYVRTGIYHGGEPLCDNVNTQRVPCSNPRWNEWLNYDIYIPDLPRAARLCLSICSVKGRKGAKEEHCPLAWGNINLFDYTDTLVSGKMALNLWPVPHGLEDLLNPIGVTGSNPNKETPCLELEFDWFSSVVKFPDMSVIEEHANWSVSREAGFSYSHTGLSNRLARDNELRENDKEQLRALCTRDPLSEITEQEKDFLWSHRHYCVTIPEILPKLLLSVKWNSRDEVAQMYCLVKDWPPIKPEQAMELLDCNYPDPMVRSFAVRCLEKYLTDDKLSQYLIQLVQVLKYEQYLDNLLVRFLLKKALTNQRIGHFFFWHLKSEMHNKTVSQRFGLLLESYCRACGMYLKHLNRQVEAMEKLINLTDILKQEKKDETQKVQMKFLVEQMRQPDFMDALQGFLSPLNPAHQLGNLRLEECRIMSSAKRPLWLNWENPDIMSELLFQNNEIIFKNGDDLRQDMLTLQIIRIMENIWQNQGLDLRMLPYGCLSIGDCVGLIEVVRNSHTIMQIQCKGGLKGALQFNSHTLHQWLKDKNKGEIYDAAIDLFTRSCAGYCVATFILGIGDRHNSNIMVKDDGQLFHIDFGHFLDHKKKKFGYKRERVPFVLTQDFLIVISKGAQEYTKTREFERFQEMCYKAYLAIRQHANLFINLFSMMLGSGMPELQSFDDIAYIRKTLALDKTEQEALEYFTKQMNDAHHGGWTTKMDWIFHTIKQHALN
Chain of PI3-Kα (P26450 whole entry partner, the tested form may be a part): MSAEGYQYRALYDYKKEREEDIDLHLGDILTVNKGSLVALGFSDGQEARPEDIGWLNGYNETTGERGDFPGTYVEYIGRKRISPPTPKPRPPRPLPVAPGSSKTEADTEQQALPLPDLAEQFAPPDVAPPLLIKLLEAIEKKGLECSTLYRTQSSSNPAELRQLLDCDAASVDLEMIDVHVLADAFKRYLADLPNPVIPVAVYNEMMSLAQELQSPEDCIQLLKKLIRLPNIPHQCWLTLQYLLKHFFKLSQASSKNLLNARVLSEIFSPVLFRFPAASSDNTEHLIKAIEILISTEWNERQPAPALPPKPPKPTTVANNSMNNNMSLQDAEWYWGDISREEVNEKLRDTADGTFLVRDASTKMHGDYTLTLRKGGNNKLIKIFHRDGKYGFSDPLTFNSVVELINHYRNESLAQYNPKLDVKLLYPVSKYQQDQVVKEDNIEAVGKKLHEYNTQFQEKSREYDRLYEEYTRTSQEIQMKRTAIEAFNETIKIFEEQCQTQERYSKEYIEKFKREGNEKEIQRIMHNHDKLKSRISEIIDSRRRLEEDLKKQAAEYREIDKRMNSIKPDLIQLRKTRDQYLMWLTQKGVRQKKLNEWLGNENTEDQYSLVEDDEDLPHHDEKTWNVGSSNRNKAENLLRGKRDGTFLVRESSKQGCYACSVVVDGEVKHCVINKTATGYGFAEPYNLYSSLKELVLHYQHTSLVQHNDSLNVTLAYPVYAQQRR

IC50 [nM]	SMILES
400	CNc1nc(C)c2cc(-c3cnc(N)c(OC[C@H](C)N)n3)c(=O)n(C3CCCC3)c2n1 [Compound 103, 6-(5-amino-6-{[(2S)-2-aminopropyl]oxy}pyrazin-2-yl)-8-cyclopentyl-4-methyl-2-(methylamino)pyrido[2,3-d]pyrimidin-7(8H)-one]
24	CNc1nc(C)c2cc(-c3cnn(CCO)c3)c(=O)n(C3CCCC3)c2n1 [Compound 105, 8-Cyclopentyl-6-(1-(2-hydroxyethyl)-1H-pyrazol-4-yl)-4-methyl-2-(methylamino)pyrido[2,3-d]pyrimidin-7(8H)-one]
28	Cc1nc(N)nc2c1cc(-c1cn[nH]c1)c(=O)n2N1CCCC1 [Compound 193, 2-Amino-4-methyl-6-(1H-pyrazol-4-yl)-8-(pyrrolidin-1-yl)pyrido[2,3-d]pyrimidin-7(8H)-one]
23	COc1ccc(-c2cc3c(C)nc(N)nc3n(N3CCCC3)c2=O)cn1 [Compound 195, 2-amino-6-(6-methoxypyridin-3-yl)-4-methyl-8-(pyrrolidin-1-yl)pyrido[2,3-d]pyrimidin-7(8H)-one]
78	Cc1nc(N)nc2c1cc(-c1cn[nH]c1)c(=O)n2C1CC1 [Compound 211, 2-amino-8-cyclopropyl-4-methyl-6-(1H-pyrazol-4-yl)pyrido[2,3-d]pyrimidin-7(8H)-one]
56	COc1ccc(-c2cc3c(C)nc(N)nc3n(C3CC3)c2=O)cn1 [Compound 212, 2-amino-8-cyclopropyl-6-(6-methoxypyridin-3-yl)-4-methylpyrido[2,3-d]pyrimidin-7(8H)-one]
1.43	COc1ncc(-c2cc3c(C)nc(N)nc3n(C3CCOCC3)c2=O)cc1F [Compound 265, 2-amino-6-(5-fluoro-6-methoxypyridin-3-yl)-4-methyl-8-(tetrahydro-2H-pyran-4-yl)pyrido[2,3-d]pyrimidin-7(8H)-one]
3.9	CCn1nccc1NC(=O)c1cc2c(C)nc(N)nc2n(C(C)C)c1=O [Compound 280, 2-amino-N-(1-ethyl-1H-pyrazol-5-yl)-8-isopropyl-4-methyl-7-oxo-7,8-dihydropyrido[2,3-d]pyrimidine-6-carboxamide]
2.6	COc1ncc(-c2cc3c(C)nc(N)nc3n([C@H]3CC[C@@H](OCCO)CC3)c2=O)cc1F [Compound 294, 2-amino-6-(5-fluoro-6-methoxypyridin-3-yl)-8-[cis-4-(2-hydroxyethoxy)cyclohexyl]-4-methylpyrido[2,3-d]pyrimidin-7(8H)-one]

same assay, conditions: at 10 μM

inhibition at 10 µM [%]	SMILES
43	CNc1nc(C)c2cc(-c3cc(CN)ccc3F)c(=O)n(C3CCCC3)c2n1 [Compound 104, 6-(5-(Aminomethyl)-2-fluorophenyl)-8-cyclopentyl-4-methyl-2-(methylamino)pyrido[2,3-d]pyrimidin-7(8H)-one]

test system: PI3-K in BT20 cells (phosphorylation of AKT at serine 473); assay: PI3-Kα Cellular Assay (AKT Ser473 phosphorylation ELISA in BT20 cells); type: cell-based, human; conditions: Homo sapiens, BT-20, pAKT Ser473 ELISA, 1 hour incubation
Experimental: Compounds of the present invention were evaluated for potency against PI3-K using a cellular assay as follows.
Healthy growing human breast cancer cells BT20 (PI3K mutated) are used for the assay. BT20 cells are grown in 10% FBS+GLN (1:100)+PS (1:100)+1 mM Sodium Pyruvate+0.1 mM Sodium Bicarbonate+Non-Essential Amino Acids Solution (1:100) MEM medium (MEM+all). […] The cells are re-suspended in 10% FBS MEM all and are centrifuged down at 1400 rpm for 5 minutes. The cells are re-suspended in 0.5% FBS MEM all and are counted on a cell counter. The cells are seeded at 25,000 cells/well in volume of 100 μL/well in 0.5% FBS MEM all in a 96 well flat-bottom plate. The negative control wells receive only 100 μL of 0.5% FBS MEM all medium without cells. The plate is incubated overnight in a cell culture incubator with 5% CO2 at 37° C.
On day 2, testing compounds are prepared in 0.5% FBS MEM all medium and serially diluted at 1:3 for 11 test concentrations. Each concentration of the compounds is tested in duplicate. The compound solutions are added at 25 μL/well to the corresponded wells in cell plate, and 25 μL/well of the vehicle (0.5% DMSO in 0.5% FBS MEM all) is added to the negative control wells (no cells) and the positive control wells (cells without compounds). The plate is incubated for 1 hour in a cell culture incubator with 5% CO2 at 37° C. After 1 hour of incubation, the medium is removed, 100 μL/well of cell lysis buffer is added into the cell plate, and shake for 15 minutes at room temperature. […] After 1 hour, empty the contents of the wells, wash the plate 4 times with the wash buffer, and add 100 μL of TMB substrate solution (catalog #T0440, Sigma) into each well, and incubate with gentle shaking at room temperature for […]. After 15 minutes of color development, add 100 μL of stop solution (1N hydrochloric acid) to each well, and read the plate at 450 nm on ELISA plate reader.

IC50 [nM]	SMILES
2330	CNc1nc(C)c2cc(-c3cnc(N)c(OC[C@H](C)N)n3)c(=O)n(C3CCCC3)c2n1 [Compound 103, 6-(5-amino-6-{[(2S)-2-aminopropyl]oxy}pyrazin-2-yl)-8-cyclopentyl-4-methyl-2-(methylamino)pyrido[2,3-d]pyrimidin-7(8H)-one]
10000	CNc1nc(C)c2cc(-c3cc(CN)ccc3F)c(=O)n(C3CCCC3)c2n1 [Compound 104, 6-(5-(Aminomethyl)-2-fluorophenyl)-8-cyclopentyl-4-methyl-2-(methylamino)pyrido[2,3-d]pyrimidin-7(8H)-one]
234	CNc1nc(C)c2cc(-c3cnn(CCO)c3)c(=O)n(C3CCCC3)c2n1 [Compound 105, 8-Cyclopentyl-6-(1-(2-hydroxyethyl)-1H-pyrazol-4-yl)-4-methyl-2-(methylamino)pyrido[2,3-d]pyrimidin-7(8H)-one]
34.8	Cc1nc(N)nc2c1cc(-c1ccc3c(c1)OCCO3)c(=O)n2[C@H]1CC[C@H](O)CC1 [Compound 261, 2-amino-6-(2,3-dihydro-1,4-benzodioxin-6-yl)-8-(trans-4-hydroxycylohexyl)-4-methylpyrido[23-d]pyrimidin-7(8H)-one]
43.7	COc1ncc(-c2cc3c(C)nc(N)nc3n([C@H]3CC[C@@H](O)CC3)c2=O)cn1 [Compound 272, 2-amino-8-(cis-4-hydroxycyclohexyl)-6-(2-methoxypyrimidin-5-yl)-4-methylpyrido[2,3-d]pyrimidin-7(8H)-one]
25.1	COc1ncc(-c2cc3c(C)nc(N)nc3n([C@H]3CC[C@H](O)CC3)c2=O)cn1 [Compound 273, 2-amino-8-(trans-4-hydroxycyclohexyl)-6-(2-methoxypyrimidin-5-yl)-4-methylpyrido[2,3-d]pyrimidin-7(8H)-one]
7.81	CNc1nc(C)c2cc(-c3ccc(OC)nc3)c(=O)n([C@H]3CC[C@H](O)CC3)c2n1 [Compound 274, 8-(trans-4-hydroxycyclohexyl)-6-(6-methoxypyridin-3-yl)-4-methyl-2-(methylamino)pyrido[2,3-d]pyrimidin-7(8H)-one]
265	CNc1nc(C)c2cc(C(=O)Nc3ccccn3)c(=O)n(C3CCCC3)c2n1 [Compound 282, 8-cyclopentyl-4-methyl-2-(methylamino)-7-oxo-N-pyridin-2-yl-7,8-dihydropyrido[2,3-d]pyrimidine-6-carboxamide]
18	COc1ccc(-c2cc3c(C)nc(N)nc3n([C@H]3CC[C@@H](OCCO)CC3)c2=O)cn1 [Compound 285, 2-Amino-8-(cis-4-(2-hydroxyethoxy)cyclohexyl)-6-(6-methoxypyridin-3-yl)-4-methylpyrido[2,3-d]pyrimidin-7(8H)-one]
13.1	COc1ccc(-c2cc3c(C)nc(N)nc3n([C@H]3CC[C@H](OCCO)CC3)c2=O)cn1 [Compound 286, 2-amino-8-[trans-4-(2-hydroxyethoxy)cyclohexyl]-6-(6-methoxypyridin-3-yl)-4-methylpyrido[2,3-d]pyrimidin-7(8H)-one]
29.5	Cc1nc(N)nc2c1cc(-c1cnc3ccccc3c1)c(=O)n2[C@H]1CC[C@H](OCCO)CC1 [Compound 289, 2-amino-8-(trans-4-(2-hydroxyethoxy)cyclohexyl]-4-methyl-6-quinolin-3-ylpyrido[2,3-d]pyrimidin-7(8H)-one]
96.2	Cc1nc(N)nc2c1cc(-c1cnc3ccccc3c1)c(=O)n2[C@H]1CC[C@@H](OCCO)CC1 [Compound 295, 2-amino-8-[cis-4-(2-hydroxyethoxy)cyclohexyl]-4-methyl-6-quinolin-3-ylpyrido[2,3-d]pyrimidin-7(8H)-one]
137	Cc1nc(N)nc2c1cc(-c1ccn[nH]1)c(=O)n2[C@H]1CC[C@H](OCCO)CC1 [Compound 301, 2-amino-8-[trans-4-(2-hydroxyethoxy)cyclohexyl]-4-methyl-6-(1H-pyrazol-3-yl)pyrido[2,3-d]pyrimidin-7(8H)-one]
20.5	COc1ccc(-c2cc3c(C)nc(N)nc3n([C@H]3CC[C@@H](OCC(N)=O)CC3)c2=O)cn1 [Compound 303]
82.9	COc1ncc(-c2cc3c(C)nc(N)nc3n([C@H]3CC[C@@H](OCC(N)=O)CC3)c2=O)cn1 [Compound 307, 2-({cis-4-(2-amino-6-(2-methoxypyrimidin-5-yl)-4-methyl-7-oxopyrido[2,3-d]pyrimidin-8(7H)-yl]cyclohexyl}oxy)acetamide]
19.3	COc1ccc(-c2cc3c(C)nc(N)nc3n([C@H]3CC[C@H](OCC(N)=O)CC3)c2=O)cn1 [Compound 309, 2-({trans-4-[2-amino-6-(6-methoxypyridin-3-yl)-4-methyl-7-oxopyrido[2,3-d]pyrimidin-8(7H)-yl]cyclohexyl}oxy)acetamide]
51.9	COc1ncc(-c2cc3c(C)nc(N)nc3n([C@H]3CC[C@H](OCC(N)=O)CC3)c2=O)cn1 [Compound 311, 2-({trans-4-[2-amino-6-(2-methoxypyrimidin-5-yl)-4-methyl-7-oxopyrido[2,3-d]pyrimidin-8(7H)-yl]cyclohexyl}oxy)acetamide]
